The test system of the assay is OCI-Ly10 cells. As to the kind of experiment: Combined effect of BTK inhibitor and BCL-2 inhibitor by BLISS score, OCI-Ly10. Conditions: combination with venetoclax, 8×8 matrix, positive = synergistic. The class given is cell-based, Human. How it is done: The BLISS score is one of the criteria used to evaluate synergistic effects in combination of agents (Borisy et al. Proc. Natl. Acad. Sci. USA., 100(13): 7977-7982 (2003); Griner et al. Proc. Natl. Acad. Sci. USA., 111(6): 2349-54 (2014)). This BLISS score was used to analyze the combined effect of a BTK inhibitor and a BCL-2 inhibitor in terms of proliferation inhibition to OCI-Ly10 cells.
After 96 hours of culture, an Alamar Blue reagent was added, and 3 hours later, fluorescence of excitation wavelength 560 nm/fluorescence wavelength 590 nm was measured. Cell proliferation inhibition rate and viability (100−inhibition rate %) were determined by setting a compound-free and cell-free well as 100% and a compound-free and cell-containing well as 0%.
Theoretical BLISS independence (BLISSin) for each well can be calculated from the following formula when agent A and agent B each are thought to have acted as a single agent (i.e., cell proliferation rate when the concentration of either one compound is 0). G is cell viability.
BLISS score for each well can be derived from a difference between the theoretical BLISSin and a measured value of cell proliferation rate. If the BLISS score is a positive number, it is considered that a synergistic effect is present.
BLISS score=100×(BLISSin−G)

One molecule from patent publication US20230100235A1, “ANTICANCER AGENT COMPOSITION” (CARNA BIOSCIENCES, INC., priority 2020, published 2023) can be followed below.

SMILES strings stand for the structures.

For `Nc1nc(-c2cccc(-n3ccc4cc(C5CC5)cc(F)c4c3=O)c2CO)c2cc(C3=CCN(C4COC4)CC3)[nH]c2n1` [Compound (I-A), 2-(3-{2-amino-6-[1-(oxetan-3-yl)-1,2,3,6-tetrahydropyridin-4-yl]-7H-pyrrolo[2,3-d]pyrimidin-4-yl}-2-(hydroxymethyl)phenyl)-6-cyclopropyl-8-fluoroisoquinolin-1(2H)-one], the BLISS score entry is given as “positive values”.
